In patent publication US20110183978A1, “Phenylpyri(mi)dinylazoles” (Bayer CropScience AG, priority 2009, published 2011):
Read-outs that look alike come from different tables or passages of the source.

Legend:
Fusarium proliferatum = assay: Example I: production of fumonisin FB1 by Fusarium proliferatum (microtitre plates); type: cell-based; settings: 120 h
Fusarium graminearum [1] = assay: microbe, parasite or virus in culture; type: cell-based
Aspergillus parasiticus = assay: microbe, parasite or virus in culture; type: cell-based; settings: 168 h
Sphaerotheca fuliginea = assay: Example L: in vivo test on Sphaerotheca fuliginea (powdery mildew on cucumber/protective); settings: Podosphaera fuliginea, 168 h, cucumber, protective, assessment 7 days after inoculation, read-out: % Wirkungsgrad
Summary of the method: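 Young cucumber plants sprayed at stated dosage with compound in DMF/alkylaryl polyglycol ether emulsifier diluted in water; inoculated with S. fuliginea spores one day later. Kept in greenhouse at 70% relative humidity, 23° C; protective activity assessed 7 days after inoculation.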

Alternaria solani = assay: Example M: in vivo test on Alternaria solani (leaf blotch disease/tomato/protective); settings: 168 h, tomato, protective, 500 ppm active substance, assessed 7 days after inoculation, read-out: % Wirkungsgrad (activity level)
Summary of the method: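 Protective test: young tomato plants sprayed with active substance (in DMF with alkylaryl polyglycol ether emulsifier, diluted in water) at the stated dosage, then inoculated with Alternaria solani. Disease assessed 7 days after inoculation.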

Plasmopara viticola = assay: Example N: in vivo test on Plasmopara viticola (downy mildew, vine/protective); settings: 144 h, vine, protective, assessment 6 days after inoculation, read-out: % Wirkungsgrad
Experimental: Emulsifier: 1 part by weight alkylaryl polyglycol ethers For the preparation of a suitable active substance preparation, 1 part by weight of active substance is mixed with the stated quantities of solvent and emulsifier and the concentrate is diluted to the desired concentration with water. For the testing for protective activity, young plants are sprayed with the active substance preparation at the stated application dosage. […] The plants are then moistened and placed in an incubation cabin for 1 day. 6 days after the inoculation, the assessment takes place.

Venturia inaequalis = assay: Example O: in vivo test on Venturia inaequalis (apple scab/protective); settings: 240 h, protective, assessment 10 days after inoculation, read-out: % Wirkungsgrad
Summary of the method: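 Protective test: active substance mixed with solvent and alkylaryl polyglycol ether emulsifier, diluted with water, and sprayed on young plants at the stated dosage before Venturia inaequalis inoculation. Scab assessed 10 days after inoculation.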

Botrytis cinerea = assay: Example P: in vivo test on Botrytis cinerea (gray mould on bean/protective); settings: 48 h, bean, protective, 250 ppm active substance, assessed 2 days after inoculation, read-out: % Wirkungsgrad (activity level)
Summary of the method: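 Protective test: young bean plants sprayed with the active substance preparation (emulsifier-based concentrate diluted in water) at the stated dosage. Once dry, each leaf received 2 agar pieces bearing Botrytis cinerea. Infection blotch size assessed 2 days after inoculation.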

Leptosphaeria nodorum = assay: Example Q: in vivo test on Leptosphaeria nodorum (glume blotch in wheat/protective); settings: Parastagonospora nodorum, 192 h, wheat, protective, assessment 8 days after inoculation, read-out: % Wirkungsgrad
Experimental: (§1) Solvent: 49 parts by weight N,N-dimethylacetamide Emulsifier: 1 part by weight alkylaryl polyglycol ethers For the preparation of a suitable active substance preparation, 1 part by weight of active substance is mixed with the stated quantities of solvent and emulsifier and the concentrate is diluted to the desired concentration with water. For the testing for protective activity, young plants are sprayed with the active substance preparation at the stated application dosage. After drying of the spray coating, the plants are sprayed with spores with a spore suspension of Leptosphaeria nodorum. […] 8 days after the inoculation, the assessment takes place.

Septoria tritici = assay: Example R: in vivo test on Septoria tritici (leaf blotch in wheat/protective); settings: Zymoseptoria tritici, 504 h, wheat, protective, 1000 ppm active substance, assessed 21 days after inoculation, read-out: % Wirkungsgrad (activity level)
Experimental: as §1, with “with” for “with spores with”, “Septoria tritici.” for “Leptosphaeria nodorum.”, “21” for “8”

[2] = test system: Fusarium nivale (var. majus); assay: whole plant or invertebrate; type: in vivo; settings: Microdochium nivale, in Triticum aestivum, 120 h, read-out: % Wirkungsgrad (activity level)
Rhizoctonia solani = assay: Example W: in vivo test on Rhizoctonia solani (sheath blight in rice/protective); settings: 96 h, rice, protective, 250 ppm active substance, assessed 4 days after inoculation, read-out: % Activity level
Experimental: Solvent: 28.5 parts by weight acetone Emulsifier: 1.5 parts by weight alkylaryl polyglycol ethers For the preparation of a suitable active substance preparation, 1 part by weight of active substance is mixed with the stated quantities of solvent and emulsifier and the concentrate is diluted to the desired concentration with water. For the testing for protective activity, young rice plants are sprayed with the active substance preparation at the stated application dosage. One day after the treatment, the plants are inoculated with hyphae of Rhizoctonia solani. […] 4 days after the inoculation, the assessment takes place.

Fusarium graminearum [3] = assay: whole plant or invertebrate; type: in vivo; settings: in Hordeum vulgare, 120 h, read-out: % Wirkungsgrad (activity level)
[4] = 72 h, read-out: % Inhibition des Pilzwachstums bei 50 μM
[5] = 168 h, read-out: % Inhibition der DON/AcDON produktion bei 50 μM
[6] = LogPA (logP of the stated pure compound or, in a mixture, of the main isomer, 1-substituted 3-aryl-1H-pyrazole)

CCn1cc(-c2ccnc(NC(=O)COC)c2)c(-c2ccc(F)cc2)n1 [Compound 203]
inhibition at 50 µM (Fusarium proliferatum; Fusarium proliferatum growth, OD 620, 5 days, read-out: % Inhibition des Pilzwachstums bei 50 μM): 99%
inhibition at 50 µM (Fusarium proliferatum; Fusarium proliferatum, 5 days at 20° C., HPLC-MS/MS, read-out: % Inhibition der FB1 produktion bei 50 μM): 100%
inhibition at 50 µM (Fusarium graminearum [1]; [4]): 100%
inhibition at 50 µM (Fusarium graminearum [1]; [5]): 100%
inhibition at 50 µM (Aspergillus parasiticus; 50 μM, 7 days at 20° C., read-out: Inhibition der Aflatoxin produktion bei 50 μM): 100%
inhibition at 50 µM (Aspergillus parasiticus; read-out: % Inhibition des Pilzwachstums bei 50 μM): 100%
pest or weed control at 500 ppm (Sphaerotheca fuliginea): 95%
pest or weed control at 500 ppm (Alternaria solani): 93%
chromatographic logP (physchem; LogPA): 2.2

COCCn1cc(-c2ccnc(NC(=O)Cc3ccccc3)c2)c(-c2ccc(F)cc2)n1 [Compound 212]
pest or weed control at 500 ppm (Sphaerotheca fuliginea): 96%
pest or weed control at 500 ppm (Alternaria solani): 95%
pest or weed control at 100 ppm (Plasmopara viticola): 83%
pest or weed control at 100 ppm (Venturia inaequalis): 85%
pest or weed control at 250 ppm (Botrytis cinerea): 98%
pest or weed control at 1000 ppm (Leptosphaeria nodorum): 71%
pest or weed control at 1000 ppm (Septoria tritici): 71%
pest or weed control at 1000 ppm [2]: 75%
chromatographic logP (physchem; LogPA): 2.6

CC(c1cnc(Cl)s1)n1cc(-c2ccncc2)c(-c2ccc(F)cc2)n1 (stereo not drawn) [Compound 176]
pest or weed control at 500 ppm (Alternaria solani): 100%
pest or weed control at 250 ppm (Rhizoctonia solani): 97%
chromatographic logP (physchem; LogPA): 1.82

CCC(C)n1cc(-c2ccnc(NC(=O)C(C)C)c2)c(-c2ccc(F)cc2)n1 (stereo not drawn) [Compound 157]
inhibition at 50 µM (Fusarium graminearum [1]; [4]): 100%
inhibition at 50 µM (Fusarium graminearum [1]; [5]): 100%
pest or weed control at 500 ppm (Sphaerotheca fuliginea): 100%
pest or weed control at 500 ppm (Alternaria solani): 94%
pest or weed control at 100 ppm (Venturia inaequalis): 94%
pest or weed control at 250 ppm (Botrytis cinerea): 78%
pest or weed control at 1000 ppm (Septoria tritici): 100%
pest or weed control at 1000 ppm [2]: 88%
pest or weed control at 1000 ppm (Fusarium graminearum [3]): 100%
chromatographic logP (physchem; [6]): 2.82

CCC(C)n1cc(-c2ccnc(NC(=O)C3CC3)c2)c(-c2ccc(F)cc2)n1 (stereo not drawn) [Compound 167]
inhibition at 50 µM (Fusarium graminearum [1]; [4]): 100%
inhibition at 50 µM (Fusarium graminearum [1]; [5]): 99%
pest or weed control at 500 ppm (Sphaerotheca fuliginea): 100%
pest or weed control at 100 ppm (Venturia inaequalis): 89%
pest or weed control at 250 ppm (Botrytis cinerea): 100%
pest or weed control at 1000 ppm (Leptosphaeria nodorum): 92%
pest or weed control at 1000 ppm [2]: 100%
pest or weed control at 1000 ppm (Fusarium graminearum [3]): 100%
chromatographic logP (physchem; LogPA): 2.56

CC(C)Cn1cc(-c2ccnc(NC(C)C)n2)c(-c2ccc(F)cc2)n1 [Compound 174]
pest or weed control at 500 ppm (Sphaerotheca fuliginea): 100%
pest or weed control at 500 ppm (Alternaria solani): 100%
pest or weed control at 100 ppm (Plasmopara viticola): 70%
pest or weed control at 100 ppm (Venturia inaequalis): 100%
pest or weed control at 250 ppm (Botrytis cinerea): 80%
pest or weed control at 1000 ppm (Leptosphaeria nodorum): 93%
pest or weed control at 1000 ppm (Septoria tritici): 90%
pest or weed control at 250 ppm (Rhizoctonia solani): 93%
chromatographic logP (physchem; LogPA): 2.39

CC(c1cccc(Cl)c1)n1cc(-c2ccncc2)c(-c2ccc(F)cc2)n1 (stereo not drawn) [Compound 101]
pest or weed control at 250 ppm (Rhizoctonia solani): 95%
chromatographic logP (physchem; [6]): 2.17
